Source: patent publication US10329260B2, “Human plasma kallikrein inhibitors” (BioCryst Pharmaceuticals, Inc., priority 2014, dated 2019)

B1: C1-inhibitor (protein, UniProt P05155 23-500, looked up)
Plasma protease C1 inhibitor: NPNATSSSSQDPESLQDRGEGKVATTVISKMLFVEPILEVSSLPTTNSTTNSATKITANTTDEPTTQPTTEPTTQPTIQPTQPTTQLPTDSPTQPTTGSFCPGPVTLCSDLESHSTEAVLGDALVDFSLKLYHAFSAMKKVETNMAFSPFSIASLLTQVLLGAGENTKTNLESILSYPKDFTCVHQALKGFTTKGVTSVSQIFHSPDLAIRDTFVNASRTLYSSSPRVLSNNSDANLELINTWVAKNTNNKISRLLDSLPSDTRLVLLNAIYLSAKWKTTFDPKKTRMEPFHFKNSVIKVPMMNSKKYPVAHFIDQTLKAKVGQLQLSHNLSLVILVPQNLKHRLEDMEQALSPSVFKAIMEKLEMSKFQPTLLTLPRIKVTTSQDMLSIMEKLEFFDFSYDLNLCGLTEDPDLQVSAMQHQTVLELTETGVEAAAASAISVARTLLVFEVQQPFLFVLWDQQHKFPVFMGRVYDPRA

Columns and labels:
[1] = system: patients with hereditary angioedema (HAE); conditions: cited from earlier work
[2] = system: animal model of ischemic stroke; conditions: cited from earlier work
[3] = system: lipopolysaccharide (LPS)- or bacterial-induced sepsis in animals; conditions: cited from earlier work
sepsis patients = conditions: cited from earlier work
human plasma kallikrein = human plasma kallikrein (Homo sapiens (Human), UniProt P03952); assay: Plasma Kallikrein Activity Assay; assay type: biochemical; conditions: 2 nM kallikrein, 80 μM chromogenic substrate S2302, 30° C., pH 7.8; Ki by Cheng-Prusoff equation
Procedure: Plasma Kallikrein Activity Assay.
The effect of compounds of the invention on human plasma kallikrein activity was determined using the chromogenic substrates (DiaPharma Group, Inc., West Chester, Ohio, USA). In these experiments, 2 nM kallikrein (Enzyme Research Laboratories, South Bend, Ind., USA) was incubated with 80 μM S2302 (H-D-Pro-Phe-Arg-p-nitroaniline) in the absence or presence of increasing concentrations of compounds of the invention in a final volume of 200 μL Tris-HCl buffer (200 mM NaCl; 2.5 mM CaCl2; 50 mM Tris-HCl, pH 7.8).
Data were analyzed using SigmaPlot software (Systat Software, Inc., San Jose, Calif., USA) (Four Parameter Logistic Curve).

[4] = system: mouse model of middle cerebral artery occlusion (MCAO); conditions: cited from earlier work

Sequence of human plasma kallikrein (P03952 whole entry partner, looked up): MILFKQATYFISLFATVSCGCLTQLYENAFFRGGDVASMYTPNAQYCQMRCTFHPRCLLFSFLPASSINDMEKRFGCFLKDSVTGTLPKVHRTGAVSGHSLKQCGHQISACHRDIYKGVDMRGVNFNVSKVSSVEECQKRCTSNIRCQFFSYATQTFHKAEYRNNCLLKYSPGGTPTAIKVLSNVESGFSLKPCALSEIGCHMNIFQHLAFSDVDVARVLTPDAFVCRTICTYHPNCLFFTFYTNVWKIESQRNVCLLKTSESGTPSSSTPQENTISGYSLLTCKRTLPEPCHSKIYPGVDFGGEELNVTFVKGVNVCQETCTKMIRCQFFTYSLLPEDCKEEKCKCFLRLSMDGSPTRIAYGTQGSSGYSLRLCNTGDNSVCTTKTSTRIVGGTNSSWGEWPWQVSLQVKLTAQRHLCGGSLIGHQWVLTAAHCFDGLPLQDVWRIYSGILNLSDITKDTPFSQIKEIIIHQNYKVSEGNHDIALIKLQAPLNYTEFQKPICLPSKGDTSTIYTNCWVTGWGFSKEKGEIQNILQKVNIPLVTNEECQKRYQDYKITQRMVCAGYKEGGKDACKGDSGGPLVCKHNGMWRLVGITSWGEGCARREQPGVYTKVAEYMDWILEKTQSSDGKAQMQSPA
Sequence of human plasma kallikrein (P03952 whole entry, looked up): as the sequence (P03952 whole entry partner, looked up) above

Molecule | Ki (human plasma kallikrein) | further results
NC(N)=NCCC[C@@H](N)C(=O)N[C@@H](CCCN=C(N)N)C(=O)N1CCC[C@H]1C(=O)N1C[C@H](O)C[C@H]1C(=O)NCC(=O)N[C@@H](Cc1cccs1)C(=O)N[C@@H](CO)C(=O)N1Cc2ccccc2C[C@@H]1C(=O)N1[C@H](C(=O)N[C@@H](CCCN=C(N)N)C(=O)O)C[C@@H]2CCCC[C@@H]21 [Icatibant] |  | efficacy in treating HAE ([1]; HAE): effective
ecallantide [DX-88] |  | edema in patients with hereditary angioedema ([1]; patients with HAE): alleviates edema; brain edema [2]: reduced; infarct volume [2]: reduced; neurological deficits [2]: reduced
H-D-Pro-Phe-Arg-chloromethylketone [reference compound] |  | lesions [3]: reduce
Cl-inhibitor |  | lesions [3]: reduce; vascular permeability in multiple organs [3]: reduce; clinical outcome in sepsis patients (sepsis patients): Clinical improvement
CC(C)(CO)NC(c1ccccc1)c1cccc(NC(=O)c2cc(C(F)(F)F)nn2-c2cccc(CN)c2)c1 (centres unmarked) [Compound 174b, 1-(3-(aminomethyl)phenyl)-N-(3-(((1-hydroxy-2-methylpropan-2-yl)amino)(phenyl)methyl)phenyl)-3-(trifluoromethyl)-1H-pyrazole-5-carboxamide] | > 100 nM | 
COc1ccc(-n2nc(C(F)(F)F)cc2C(=O)Nc2cc(C(O)(CCC3CC3)c3ccccn3)ccc2F)cc1 (centres unmarked) [Compound 160a, N-(5-(3-cyclopropyl-1-hydroxy-1-(pyridin-2-yl)propyl)-2-fluorophenyl)-1-(4-methoxyphenyl)-3-(trifluoromethyl)-1H-pyrazole-5-carboxamide] | > 100 nM | 
CN(C)C(c1ccccc1)c1cccc(NC(=O)c2cc(C(F)(F)F)nn2-c2cccc(CN)c2)c1 (centres unmarked) [Compound 184b, 1-(3-(Aminomethyl)phenyl)-N-(3-((dimethylamino)(phenyl)methyl)phenyl)-3-(trifluoromethyl)-1H-pyrazole-5-carboxamide] | > 100 nM | 
CC(C)CCNC(c1ccccc1)c1cccc(NC(=O)c2cc(C(F)(F)F)nn2-c2cccc(CN)c2)c1 (centres unmarked) [Compound 176b, 1-(3-(aminomethyl)phenyl)-N-(3-((isopentylamino)(phenyl)methyl)phenyl)-3-(trifluoromethyl)-1H-pyrazole-5-carboxamide] | > 100 nM | 
NCc1cccc(-n2nc(C(F)(F)F)cc2C(=O)Nc2cc(C(O)c3ccccc3)ccc2Cl)c1 (centres unmarked) [Compound 33f, 1-(3-(aminomethyl)phenyl)-N-(2-chloro-5-(hydroxy(phenyl)methyl)phenyl)-3-(trifluoromethyl)-1H-pyrazole-5-carboxamide] | > 100 nM | 
NCc1cccc(-n2nc(C(F)(F)F)cc2C(=O)Nc2cc(C(O)c3ccccc3)ccc2F)c1 (centres unmarked) [Compound 34d, 1-(3-(aminomethyl)phenyl)-N-(2-fluoro-5-(hydroxy(phenyl)methyl)phenyl)-3-(trifluoromethyl)-1H-pyrazole-5-carboxamide] | > 100 nM | 
NCc1cccc(-n2nc(C(F)(F)F)cc2C(=O)Nc2cccc(C(NC3CCCCC3)c3ccccc3)c2)c1 (centres unmarked) [Compound 185b, 1-(3-(Aminomethyl)phenyl)-N-(3-((cyclohexylamino)(phenyl)methyl)phenyl)-3-(trifluoromethyl)-1H-pyrazole-5-carboxamide] | > 100 nM | 
NCc1cccc(-n2nc(C(F)(F)F)cc2C(=O)Nc2cc(Cn3ccnc3)ccc2F)c1 [Compound 30g, N-(5-((1H-imidazol-1-yl)methyl)-2-fluorophenyl)-1-(3-(aminomethyl)phenyl)-3-(trifluoromethyl)-1H-pyrazole-5-carboxamide] | > 100 nM | 
NCc1cccc(-n2nc(C(F)(F)F)cc2C(=O)Nc2cccc(C(NCC3CCCO3)c3ccccc3)c2)c1 (centres unmarked) [Compound 175b, 1-(3-(aminomethyl)phenyl)-N-(3-(phenyl(((tetrahydrofuran-2-yl)methyl)amino)methyl)phenyl)-3-(trifluoromethyl)-1H-pyrazole-5-carboxamide] | > 100 nM | 
CC(O)CNC(c1ccccc1)c1cccc(NC(=O)c2cc(C(F)(F)F)nn2-c2cccc(CN)c2)c1 (centres unmarked) [Compound 182b, 1-(3-(aminomethyl)phenyl)-N-(3-(((2-hydroxypropyl)amino)(phenyl)methyl)phenyl)-3-(trifluoromethyl)-1H-pyrazole-5-carboxamide] | > 100 nM | 
B1 |  | infarct size [4]: reduced
